In ChEMBL document CHEMBL1201862, “PubChem BioAssay data set” (2004):
The source made the active and inactive calls.

Experiments:
[1] = biological target: T1, RNA-binding protein pos-1 (Caenorhabditis elegans, UniProt G5EF15); experiment: inhibitors of POS-1/mex-3 RNA binding, dose response, biochemical, fluorescence polarization (AID 1964);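 also: purified POS-1 fused to maltose binding protein made in E. coli; potency of compounds blocking POS-1 binding to fluorescent RNA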
T1 sequence (G5EF15 whole entry): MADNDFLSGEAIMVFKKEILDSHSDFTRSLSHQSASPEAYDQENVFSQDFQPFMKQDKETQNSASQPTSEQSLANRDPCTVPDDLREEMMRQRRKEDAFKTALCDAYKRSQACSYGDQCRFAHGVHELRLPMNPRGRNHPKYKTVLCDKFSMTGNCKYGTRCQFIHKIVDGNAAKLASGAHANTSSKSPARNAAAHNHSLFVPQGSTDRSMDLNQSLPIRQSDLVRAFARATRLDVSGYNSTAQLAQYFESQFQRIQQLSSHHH

[2] = biological target: T2, Zinc finger protein mex-5 (Caenorhabditis elegans, UniProt Q9XUB2); experiment: MEX-5/TCR-2 RNA interaction inhibitors, dose response, biochemical, C. elegans, fluorescence polarization (AID 1960)
T2 sequence (Q9XUB2 whole entry): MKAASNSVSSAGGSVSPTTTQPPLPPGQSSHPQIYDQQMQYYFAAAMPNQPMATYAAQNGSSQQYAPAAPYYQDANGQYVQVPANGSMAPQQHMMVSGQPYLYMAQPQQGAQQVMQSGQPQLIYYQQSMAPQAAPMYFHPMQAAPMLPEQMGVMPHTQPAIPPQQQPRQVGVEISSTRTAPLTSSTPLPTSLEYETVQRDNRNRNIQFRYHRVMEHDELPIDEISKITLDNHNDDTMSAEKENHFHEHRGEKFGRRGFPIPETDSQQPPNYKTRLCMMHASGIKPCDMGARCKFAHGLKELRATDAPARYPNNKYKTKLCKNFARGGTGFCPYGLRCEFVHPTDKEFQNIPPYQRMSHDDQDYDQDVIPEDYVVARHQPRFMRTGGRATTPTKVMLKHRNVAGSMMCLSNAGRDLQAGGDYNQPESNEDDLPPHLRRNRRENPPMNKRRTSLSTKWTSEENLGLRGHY

[3] = biological target: T3, Corticotropin-releasing factor receptor 2/Corticotropin-releasing factor-binding protein (Homo sapiens, UniProt P24387+Q13324); experiment: Dose Response confirmation of uHTS hits for small molecule antagonists of the CRF-binding protein and CRF-R2 receptor complex.; type: functional; settings: read-out: IC50_Mean
T3 sequence (Q13324 whole entry): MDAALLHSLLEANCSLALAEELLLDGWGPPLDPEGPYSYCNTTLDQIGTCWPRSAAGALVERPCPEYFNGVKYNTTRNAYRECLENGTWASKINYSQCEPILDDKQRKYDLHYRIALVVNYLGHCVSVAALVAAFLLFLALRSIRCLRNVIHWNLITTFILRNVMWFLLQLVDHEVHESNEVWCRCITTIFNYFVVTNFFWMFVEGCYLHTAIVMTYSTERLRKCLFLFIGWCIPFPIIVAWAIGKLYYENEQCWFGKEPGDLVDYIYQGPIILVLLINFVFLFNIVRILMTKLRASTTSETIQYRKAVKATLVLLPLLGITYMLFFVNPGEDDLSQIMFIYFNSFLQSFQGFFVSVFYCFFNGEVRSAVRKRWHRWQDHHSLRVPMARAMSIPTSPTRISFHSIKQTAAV
T3 sequence (P24387 whole entry): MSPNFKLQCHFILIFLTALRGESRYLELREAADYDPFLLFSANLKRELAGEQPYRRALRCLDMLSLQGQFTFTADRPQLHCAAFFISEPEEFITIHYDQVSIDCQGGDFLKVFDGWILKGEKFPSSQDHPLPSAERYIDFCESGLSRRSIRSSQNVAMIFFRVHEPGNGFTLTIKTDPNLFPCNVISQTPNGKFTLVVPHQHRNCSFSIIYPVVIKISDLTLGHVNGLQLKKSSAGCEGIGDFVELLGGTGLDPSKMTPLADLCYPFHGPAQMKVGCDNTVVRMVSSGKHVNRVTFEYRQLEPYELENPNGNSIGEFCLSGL

[4] = biological target: T3, Corticotropin-releasing factor receptor 2/Corticotropin-releasing factor-binding protein; experiment: activators of CRF receptor 2 with binding protein – uHTS hits, confirmation (AID 602473); type: functional; settings: read-out: EC50_Mean
[5] = biological target: Luciferin 4-monooxygenase (Photinus pyralis, UniProt P08659); experiment: firefly luciferase enzyme inhibitors, dose response, biochemical, luminescence (AID 1891)
Chain of Luciferin 4-monooxygenase (P08659 whole entry): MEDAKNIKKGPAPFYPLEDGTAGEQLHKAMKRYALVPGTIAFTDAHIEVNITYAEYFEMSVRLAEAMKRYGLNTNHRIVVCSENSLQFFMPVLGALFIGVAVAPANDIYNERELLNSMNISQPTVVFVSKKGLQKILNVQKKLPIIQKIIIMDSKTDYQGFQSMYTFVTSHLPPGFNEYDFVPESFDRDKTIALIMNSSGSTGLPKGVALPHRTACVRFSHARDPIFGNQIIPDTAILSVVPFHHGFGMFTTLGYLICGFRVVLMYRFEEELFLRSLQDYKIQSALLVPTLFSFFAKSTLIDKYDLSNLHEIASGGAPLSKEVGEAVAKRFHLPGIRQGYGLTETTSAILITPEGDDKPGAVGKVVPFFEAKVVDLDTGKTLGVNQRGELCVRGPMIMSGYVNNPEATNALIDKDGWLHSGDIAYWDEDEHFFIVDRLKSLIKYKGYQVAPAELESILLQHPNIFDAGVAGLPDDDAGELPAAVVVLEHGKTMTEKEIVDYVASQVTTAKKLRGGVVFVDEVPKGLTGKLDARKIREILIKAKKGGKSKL

[6] = Luminescence Cell-Based Dose Confirmation HTS to Identify Inhibitors of Platelet Dense Granule Release. [Related pubchem assays: 1663 (Primary HTS), 1678 (Summary of Project)]; type: functional
[7] = Shn3 3'UTR reporter inhibitors, dose response, cell-based, Clone20 osteoblasts, firefly luciferase, cherry-picked (AID 624132); type: functional;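 also: firefly luciferase luminescence from reporter carrying the Shn3 3'UTR in osteoblasts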
[8] = HepG2 cell cytotoxicity, dose response, cytotoxicity control for Shn3 inhibitor project, CellTiter-Glo, cherry-picked (AID 624134); type: functional, cell-based
[9] = control 3'UTR Renilla luciferase suppression, dose response, counter-screen for Shn3 inhibitor project, cell-based, Clone20-Shn3RL, cherry-picked (AID 624133); type: functional
[10] = biological target: T4, Polyadenylate-binding protein 1 (Homo sapiens, UniProt P11940); experiment: PABP1 MLLE–PAM2 interaction inhibitors, dose response, miRNA deadenylation inhibitor project, biochemical, fluorescence polarization, Cy5-PAM2 peptide, secondary (AID 602260); type: functional; settings: read-out: IC50_Mean
T4 sequence (P11940 whole entry): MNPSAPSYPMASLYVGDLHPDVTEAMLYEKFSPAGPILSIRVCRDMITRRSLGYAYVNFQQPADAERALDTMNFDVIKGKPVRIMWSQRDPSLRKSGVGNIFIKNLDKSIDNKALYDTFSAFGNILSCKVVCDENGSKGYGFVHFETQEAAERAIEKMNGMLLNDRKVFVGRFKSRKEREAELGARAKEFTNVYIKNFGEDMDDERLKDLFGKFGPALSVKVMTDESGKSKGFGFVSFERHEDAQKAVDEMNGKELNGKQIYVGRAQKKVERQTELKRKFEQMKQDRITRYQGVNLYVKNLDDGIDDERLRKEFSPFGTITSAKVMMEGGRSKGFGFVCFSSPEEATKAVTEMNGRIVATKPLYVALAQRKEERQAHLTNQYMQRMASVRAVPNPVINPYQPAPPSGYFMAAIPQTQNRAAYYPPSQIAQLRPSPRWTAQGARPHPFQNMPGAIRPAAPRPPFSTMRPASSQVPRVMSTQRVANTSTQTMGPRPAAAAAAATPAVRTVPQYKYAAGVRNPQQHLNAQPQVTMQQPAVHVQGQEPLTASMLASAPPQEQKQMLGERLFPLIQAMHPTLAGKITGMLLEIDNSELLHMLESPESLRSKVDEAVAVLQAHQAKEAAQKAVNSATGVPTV

[11] = biological target: T4, Polyadenylate-binding protein 1; experiment: PABP1 MLLE–PAM2 binding inhibitor potency, dose response, biochemical, fluorescence polarization, FITC-PAM2 peptide (AID 602259); type: functional; settings: read-out: IC50_Mean
Nonstructural protein 1 = Nonstructural protein 1 (Influenza A virus, UniProt Q194T2); type: functional, Influenza A virus (A/California/07/2009(H1N1))
Chain of Nonstructural protein 1 (Q194T2 whole entry): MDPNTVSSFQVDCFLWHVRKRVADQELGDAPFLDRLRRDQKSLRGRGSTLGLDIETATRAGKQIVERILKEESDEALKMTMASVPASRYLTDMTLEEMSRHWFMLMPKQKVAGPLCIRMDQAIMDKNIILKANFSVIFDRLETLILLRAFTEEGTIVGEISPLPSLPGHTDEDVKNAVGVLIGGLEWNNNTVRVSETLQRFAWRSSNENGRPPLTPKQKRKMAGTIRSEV

Paired box protein Pax-8 = Paired box protein Pax-8 (Homo sapiens, UniProt Q06710); experiment: inhibitors of PAX8-driven TPO luciferase reporter, dose response, RMG-I cells, cherry-pick (AID 687027); type: functional, cell-based;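 also: luciferase reporter driven by Pax8 target thyroperoxidase promoter measured by SteadyGlo luminescence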
Chain of Paired box protein Pax-8 (Q06710 whole entry): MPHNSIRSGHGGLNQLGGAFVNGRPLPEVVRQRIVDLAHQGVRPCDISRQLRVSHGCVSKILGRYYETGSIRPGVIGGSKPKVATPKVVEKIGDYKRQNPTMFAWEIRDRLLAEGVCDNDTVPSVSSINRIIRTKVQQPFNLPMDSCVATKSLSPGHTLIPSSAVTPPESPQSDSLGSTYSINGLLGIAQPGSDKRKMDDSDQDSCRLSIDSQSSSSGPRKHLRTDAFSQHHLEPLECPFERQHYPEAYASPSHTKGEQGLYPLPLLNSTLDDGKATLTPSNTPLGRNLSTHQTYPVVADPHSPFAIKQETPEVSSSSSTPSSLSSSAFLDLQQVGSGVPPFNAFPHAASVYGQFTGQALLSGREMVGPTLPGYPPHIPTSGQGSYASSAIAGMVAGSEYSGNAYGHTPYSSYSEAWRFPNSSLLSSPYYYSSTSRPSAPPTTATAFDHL

[12] = biological target: T5, Heat shock factor protein 1 (Mus musculus, UniProt P38532); experiment: inhibition of MG132-induced HSE-luciferase signal, confirmation, cell-based, NIH3T3, luminescence, dose retest (AID 2382); type: functional;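 also: NIH3T3 fibroblasts with HSF1-driven luciferase reporter stressed by proteasome inhibitor MG132; luminescence from HSF1-driven luciferase expression after 8 hours of MG132 stress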
T5 sequence (P38532 whole entry): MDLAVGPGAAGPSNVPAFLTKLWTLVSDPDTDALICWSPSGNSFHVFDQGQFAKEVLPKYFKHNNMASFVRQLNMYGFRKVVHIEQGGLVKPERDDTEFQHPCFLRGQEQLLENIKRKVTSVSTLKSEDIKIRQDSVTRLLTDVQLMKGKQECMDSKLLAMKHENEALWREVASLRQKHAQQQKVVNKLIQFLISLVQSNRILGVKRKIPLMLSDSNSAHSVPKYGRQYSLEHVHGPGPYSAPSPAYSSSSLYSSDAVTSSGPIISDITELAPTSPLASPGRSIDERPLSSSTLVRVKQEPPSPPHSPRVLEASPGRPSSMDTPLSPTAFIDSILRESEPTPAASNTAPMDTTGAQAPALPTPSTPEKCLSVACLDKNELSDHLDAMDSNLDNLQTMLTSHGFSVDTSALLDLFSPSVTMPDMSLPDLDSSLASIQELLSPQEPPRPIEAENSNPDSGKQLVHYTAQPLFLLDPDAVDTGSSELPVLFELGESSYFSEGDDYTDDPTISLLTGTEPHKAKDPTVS

Nc1ncnc(NNC(=O)CNC(=O)c2c(F)cccc2Cl)c1[N+](=O)[O-]
EC50 [1]: 0.548 µM (active)
EC50 [2]: 0.241 µM (active)
IC50 [3]: > 47.1 µM (inactive)
EC50 [4]: > 53 µM (inactive)

CNc1nc2c(N)ncnc2n1[C@H]1O[C@@H](CO)[C@H](O)[C@@H]1O
EC50 [5]: > 112 µM (not active)
EC50 [6]: 1.36 µM (active)

Cc1cccc(C)c1N1CCN(C(=O)c2ccc3c(c2)OCO3)CC1
IC50 [3]: > 47.1 µM (inactive)
EC50 [4]: > 53 µM (inactive)

COc1ccc(CNCCC(c2ccc(OC(C)C)cc2)c2ccccc2OC)cc1OC (centres undefined)
AC50 [7]: 4.35 µM (active)
AC50 [8]: 19.1 µM (active)
AC50 [9]: 5.37 µM (active)

COCCn1c(=N)c(C(=O)NCc2ccco2)cc2c(=O)n3cc(C)ccc3nc21
IC50 [10]: 33.2 µM (inactive)
IC50 [3]: > 47.1 µM (inactive)
IC50 [11]: 16.7 µM (active)
EC50 [4]: > 53 µM (inactive)

Cc1ccc2c(CC(=O)N3CCN(S(=O)(=O)c4cccs4)CC3)coc2c1
EC50 [5]: > 112 µM (not active)
EC50 [6]: > 112 µM (not active)

C=CCN1C(=O)NC(=O)/C(=C/c2c(CCN(C)C(=O)c3ccccc3)cc3c(c2OC)OCO3)C1=O
EC50 [1]: > 300 µM (not active)
EC50 [2]: > 300 µM (not active)

CCC(Oc1ccccc1)C(=O)Nc1ccccn1 (centres undefined)
EC50 [1]: > 300 µM (not active)
EC50 [2]: > 300 µM (not active)

Cc1cc(NC(=O)CCN2CCN(C/C=C/c3ccccc3)CC2)ccc1Br
AC50 [7]: 10.2 µM (active)
AC50 [8]: > 70 µM (inactive)
AC50 [9]: 15 µM (active)

O=C1C(NS(=O)(=O)c2cccs2)=C(N2CCN(c3ccccc3)CC2)C(=O)c2ccccc21
IC50 (Nonstructural protein 1): 21.6 µM (active)

Cc1cc(C)c2c(CC(=O)Nc3nccs3)coc2c1
IC50 [3]: > 47.1 µM (inactive)
EC50 [4]: > 53 µM (inactive)

O=[N+]([O-])c1ccc(Nc2ccc(N3CCOCC3)cc2)c([N+](=O)[O-])c1
IC50 (Nonstructural protein 1): 71.6 µM (active)

CN(C)c1ccc(C2CC(c3cccc(NS(C)(=O)=O)c3)=NN2C(=O)c2ccccc2)cc1 (centres undefined)
IC50 (Nonstructural protein 1): > 100 µM (active)

COc1cc(C2C(C#N)=C(N)Oc3[nH]nc(-c4ccccn4)c32)cc(OC)c1OC (centres undefined)
IC50 [3]: > 47.1 µM (inactive)
EC50 [4]: > 53 µM (inactive)

O=C(NC1CC1)c1ccc2c(c1)C1C3CCC(C3)C1C(c1ccccc1)N2 (centres undefined)
AC50 (Paired box protein Pax-8): 48.2 µM (active)

CCOC(=O)c1c(O)nc2ccccc2c1N1CCCCC1
EC50 [12]: > 195 µM (not active)
EC50 [5]: > 112 µM (not active)
EC50 [6]: > 112 µM (not active)

S=C(Nc1ccc2c(c1)OCO2)Nc1ccccc1Cl
IC50 [3]: > 47.1 µM (inactive)
EC50 [4]: > 53 µM (inactive)

COCc1nnc(NC(=O)CSCc2ccccc2)s1
EC50 [5]: > 112 µM (not active)
EC50 [6]: > 112 µM (not active)

OCCN1CCN(CC(O)COc2ccc(Cl)cc2)CC1 (centres undefined)
EC50 [5]: > 112 µM (not active)
EC50 [6]: > 112 µM (not active)

CN(C1=C(N2CCCCC2)C(=O)c2ccccc2C1=O)c1ccccc1
IC50 (Nonstructural protein 1): 6.94 µM (active)

COc1ccc(P(=O)(COc2ccc([N+](=O)[O-])cc2)c2ccc(OC)cc2)cc1
EC50 [5]: > 112 µM (not active)
EC50 [6]: > 112 µM (not active)

COc1ccc(NC(=O)/C=C/c2cccc(Br)c2)cn1
EC50 [1]: 16 µM (active)
EC50 [2]: 12.4 µM (active)

O=c1[nH]n(-c2ncnc3c2cnn3-c2ccccc2)c(=O)c2ccccc12
EC50 [1]: 11.6 µM (active)
EC50 [2]: 7.26 µM (active)

Cc1nc(Nc2nc(CSc3nc4ccccc4[nH]3)cc(=O)[nH]2)nc2ccccc12
AC50 (Paired box protein Pax-8): 9.16 µM (active)

COc1cccc(=O)c2c(C)oc(C)c12
EC50 [1]: > 300 µM (not active)
EC50 [2]: > 300 µM (not active)

Clc1ccc2nncn2n1
IC50 [3]: > 47.1 µM (inactive)
EC50 [4]: > 53 µM (inactive)

COC(=O)Cc1ccc(NC(=S)NCCC(C)C)cc1
IC50 [3]: > 47.1 µM (inactive)
EC50 [4]: > 53 µM (inactive)

O=C1CSC(=S)N1N=Cc1ccccc1O
IC50 (Nonstructural protein 1): 1.75 µM (active)

OC(c1cc(-c2cccc(Cl)c2)nc2ccccc12)C1CCCCN1 (centres undefined)
AC50 [7]: 10.8 µM (active)
AC50 [8]: 16 µM (active)
AC50 [9]: 15.4 µM (active)

O=C(CCc1ccccc1)Nc1c(F)cccc1F
IC50 [3]: > 47.1 µM (inactive)
EC50 [4]: > 53 µM (inactive)

O=C(NCc1ccncc1)c1cc(F)c(F)cc1Cl
IC50 [3]: > 47.1 µM (inactive)
EC50 [4]: > 53 µM (inactive)

Cc1cc(/C=N/NC(=O)c2ccoc2C)cc(C)c1O
IC50 [3]: > 47.1 µM (inactive)
EC50 [4]: > 53 µM (inactive)

COc1ccc(NC(=O)C2Cc3c(-c4cccc(C(C)=O)c4)ccnc3O2)cc1OC (centres undefined)
AC50 [7]: 0.799 µM (active)
AC50 [8]: 7.75 µM (active)
AC50 [9]: 4.68 µM (active)

C[C@@H]1CN([C@H](C)CO)C(=O)c2cc(NC(=O)Nc3ccc(F)cc3)ccc2O[C@@H](C)CCCCO[C@H]1CN(C)Cc1ccc(Cl)c(Cl)c1
AC50 (Paired box protein Pax-8): 9.51 µM (active)

C[C@@H]1CCCCO[C@@H](CN(C)Cc2ccc(Cl)c(Cl)c2)[C@H](C)CN([C@@H](C)CO)C(=O)c2cc(NS(=O)(=O)c3ccccc3)ccc2O1
AC50 (Paired box protein Pax-8): 13.4 µM (active)

CN1C(=O)C(=Cc2c[nH]c3ccccc23)C(=O)N(C)C1=O
EC50 [1]: 52.9 µM (active)
EC50 [2]: 151 µM (active)

Cc1cccn2c(=O)c3cc(C(=O)NC4CCCC4)c(=N)n(CCc4ccccc4)c3nc12
EC50 [1]: > 300 µM (not active)
EC50 [2]: > 300 µM (not active)
